The source of these data is patent publication US12060573B2, “Stabilized amorphous calcium carbonate as a supplement for cell culture media” (AMORPHICAL LTD., priority 2016, dated 2024).

Several values for one entry are separate records, joined by “and”; a condition that tells them apart may be missing. Equal values may be shown once. Entries after “also recorded” stand apart in the source; their conditions may differ. Bounds are passed on as bounds.

Assay [1] relates to spinal cord-dorsal root ganglia (SC-DRG) slices. The assay can be described thus: Nerve fiber sprouting from SC-DRG co-cultures. Type of assay: cell-based, rat. To be noted: Ca2+ 2 mM; 4 days of cultivation; portion of 6 explants. On the procedure:
Neural and Vascular Reconstruction Gel ([…] Labs proprietary) is composed of two main components: high molecular hyaluronic acid (HA, 3×10^6 Da, BTG, Israel) and laminin (Sigma). […] The gel has the texture of a viscous liquid, it adheres easily and successfully the embedded cells or explants to the plastic or glass substratum, and enabled nerve fiber outgrowth in a 3D pattern. All the experiments were carried out and authorized by the local ethics committee recognized by the Israeli authorities for animal experimentation. Stationary organotypic cultures of dorsal root ganglia (DRG) and spinal cord (SC) as well as cultures of dissociated brain cells were prepared from rat fetuses (15 days of gestation, Lewis inbred, Harlan, Israel). Immediately after dissection, the isolated tissues were cut with a […] tissue chopper into small slices (of 400 μm thickness). In these studies, two tissue culture strategies were used. […] In the second method, the tissue slices were further dissociated with a trypsin-EDTA solution for 30 min, and washed with a culture medium. Subsequently, the dissociated cells were added to a suspension of chitosan powder or gastrolith powder (micro carriers, MCs) and incubated in suspension at 37° C. for 4 days. […] The cultures were monitored by daily phase contrast microscopic observations starting from 24 hours after setting the cultures onward. […]

For assay [2], the system named is skeletal muscle cultures. Briefly: Myotube formation and contractility in healthy skeletal muscle cultures. In kind it is cell-based, rat. Particulars: added 1 mM, final Ca2+ 2 mM. As for the experimental part:
Stationary skeletal muscle cultures were prepared from healthy 1 day new born rat (Sprague Dawley, Harlan, Israel). The muscle tissue was dissected from posterior legs and was thoroughly minced. Digestion was performed with Trypsin-EDTA while gentle trituration. After 30 min the supernatant, containing dissociated cells, was collected and a fresh Trypsin-EDTA was added. This procedure was repeated two more times. Then, all supernatants were pooled, centrifuged, and the cell pellet was re-suspended in Proliferation Medium. Cells were seeded in a Gelatin coated 12 wells culture plates, 1×10^5 cells/well containing 1 mL of Proliferation Medium. Two days later, the medium was changed to Fusion Medium, which was then changed twice a week. The cultures were monitored by daily phase contrast microscopic observations from 24 hours after setting the cultures and onward.
Stock solution of 1% porcine gelatin in water, was sterilized by autoclave. Once cooled, 500 μl of the solution were added to each well of the 12-wells culture plat. After incubation for 20 min at room temperature, the excess solution was removed, and the cells were seeded.
For the proliferation stage, cells were cultured in: DMEM/F12 (containing 1 mM Ca^2+)+10% FBS, 25 μg/mL Gentamycin, and 2 mM L-Glutamine. […]

Assay [3] deals with mice embryos. Briefly: In-vitro embryo development in Quinn's Advantage cleavage media. Type of assay: cell-based. On the procedure: CBA male mice were bred with BL C57 female mice. The mice were kept on a 12 hours photoperiod schedule with unlimited water and food supply. About 6 to 8 weeks after receiving offspring, each female mouse was injected IP with 5IU of pregnant mare serum gonadotropin (PMSG).
After 48 hours each female mouse was injected IP with 5IU human chorionic gonadotropin (hCG). Male mice proven to be fertile were then put together with the superovulated females. The next morning the female mice were examined for the presence of copulatory plugs. Females that had copulatory plugs were euthanized after 24 hours (approximately 36 hours post-coitus) and embryos at 2 cell stage were retrieved from the oviducts as following: the oviducts were dissected in Quinn's Advantage cleavage media (SAGE, Origio, Denmark) and the embryos were transferred to 20 μL drops with Quinn's Advantage cleavage media (SAGE, Origio, Denmark) overlaid with mineral oil and cultured at 37.0° C. under 5% CO2 and atmospheric oxygen. The collected embryos continued to grow, i.e. in-vitro culture (IVC), until blastocyst/hatching stage. To test the effect of amorphous calcium carbonate, the Quinn's Advantage cleavage media (“cleavage media” hereinafter) was supplemented with different additives, i.e. amorphous calcium carbonate stabilized by polyphosphate (ACC-PP), crystalline calcium carbonate (CCC), polyphosphate (PP), phosphoserine (PS) or sodium carbonate ([…]). All supplements were added as a freshly prepared suspension; the preparation of the ACC supplements were performed under aseptic conditions. Untreated cleavage media (without addition of any additive) was used as a control (identified as Cont Q). The embryos were evaluated every day by microscope observation for a detection of the following stages: 2 cells, compactions stage, blastocysts formation and hatching stage. The fraction (in percent) of the embryos reached each stage was calculated (the number of 2 cells embryos was set as 100%).

Assay [4] deals with MBA-13 cells. Briefly: Differentiation of MBA13 stem cells to osteoblasts (Alizarin red, alkaline phosphatase staining). Type of assay: cell-based. To be noted: additional 1 mM calcium (total 2.488 mM); 10 days; gelatin coating. On the procedure:
Two days following thawing, MBA-13 cells (received from Prof. Dov Zipori, Weizmann Institute of Science) were re-suspended in recombinant trypsin solution and seeded on a 96 wells plate, (Day “0”) in a concentration of 1×10^4 cells/well using MSC Nutristem® XF basal medium (Biological Industries, cat #05-200-1A) supplemented with Mesenchymal stem cells (MSC) supplement mix medium (Biological Industries cat #05-201-06) in a ratio of 50 ml:300 μl. […] Row G in the plate was treated with MSCgo medium (total 1.488 mM calcium). Row H of the plate was treated with MSC NutriStem® XF nutrient basal medium+ supplement mix (total 1.488 mM calcium). On day 4, medium was exchanged with fresh preparations of ACC. […] Once the cells were fixated, two types of staining reagents were used to stain extracellular calcium or bone deposition in order to estimate osteoblasts functionality: (i) Alizarin red (Sigma A55333) and (ii) Alkaline Phosphatase (DAKO BCIP/NBT substrate system […]) as following: Alizarin red staining procedure-pH was adjusted to 4.2. Cells were washed twice with PBS and fixed with cold methanol for 5 minutes and then washed again with PBS. […] Then, washed 3 times with PBS and following removal of PBS remnants, 3 drops of BCIP/NBT kit solution was used to cover the cells including one empty well without any cells as control to quantify the assay. […]

For assay [5], the system named is mdx cell line. To be noted: final Ca2+ 2 mM.
Procedure: Cells from the Mdx cell line were seeded in a Gelatin coated 12 wells culture plate, 3×10^4 cells/well containing 1 mL of Proliferation Medium. Two days later (˜66% confluence), the medium was changed to Fusion Medium which was changed twice a week. The various calcium preparations were separately added to the Fusion Medium according to the treatment described in Table 3. Cultures were enriched with the various calcium preparations, at Ca^2+ concentration of 1 mM. Since the medium already contained 1 mM of calcium ions, then the final concentration of Ca2+ was of 2 mM
The effects of the tested calcium preparations on cell proliferation, fusion to form myotubes and muscle contraction were monitored by daily phase contrast microscopic observation.
[6] abbreviates: Example 10, 1.7 mM, embryos of each of 4 mice grown separately, one line per mouse.
Setting [7] is: Example 14, pooled embryos, 1.7 mM.
Setting [8] is: Example 15, 1.7 mM, pooled embryos of mice 3-6.
Where [9] appears, read: Example 15, 1.7 mM, sibling embryos (mouse 1: CCC; mouse 2: ACC-PP, NaCO3).
The mark [10] stands for this setting: Example 11, 1.6 mM, pooled embryos of mice 3-7.
Setting [11] is: Example 12, pooled embryos, 1.6 mM.

As for `[Ca+2].[Cl-].[Cl-]` [CaCl2, calcium chloride], the “Cultures with axonal regeneration (%)” value in assay [1] is recorded as 50%. The “muscle fibers after 7 days” value in assay [2] (7 days) was “fewer, thinner and shorter muscle fibers”. In addition, the “time to formation of myotubes” value in assay [2] (dry powder suspended in water) was “myotubes formation was observed later”. Also, in assay [3] (Example 7 Test A, 1.7 mM), the “Blast/d3, number of embryos” value worked out at 16; the “Blast/d3, portion of initial number of embryos” value (from here on “Blast/d3, portion”) came to 64%; the “Comp/d2, portion of initial number of embryos” value (from here on “Comp/d2, portion”) is given as 64%; the “comp/d2, number of embryos” value came out at 16. In assay [3] (Example 7 Test B, 1.7 mM), the “Blast/d3, number of embryos” value is listed as 20; the “Blast/d3, portion” value is 74%; the “Comp/d2, portion” value was 70%; the “Hatch/d4, number of embryos” value amounted to 11. In assay [3] (Example 7 Test B, 1.7 mM), the “Hatch/d4, portion of initial number of embryos” value came out at 40.7% and the “comp/d2, number of embryos” value is 20. Also, in assay [3] (Example 8, 1.7 mM), the “Blast/d3, number of embryos” value is 8; the “Blast/d3, portion” value is 80%; the “Comp/d2, portion” value turned out to be 30%; the “Hatch/d4, number of embryos” value is reported as 3. Moreover, in assay [3] (Example 8, 1.7 mM), the “Hatch/d4, portion of initial number of embryos” value came to 30% and the “comp/d2, number of embryos” value was 3. Also, in assay [3] (Example 9, 1.7 mM), the “Blast/d3, number of embryos” value was found to be 24; the “Blast/d3, portion” value came out at 80%; the “Comp/d2, portion” value came out at 53.3%; the “Hatch/d4, number of embryos” value is 13. Moreover, in assay [3] (Example 9, 1.7 mM), the “Hatch/d4, portion of initial number of embryos” value stood at 43.3% and the “comp/d2, number of embryos” value is recorded as 16. Besides, in assay [3] (Example 10, 1.7 mM, embryos of each of 4 mice (5 months old) grown separately, one line per mouse), the “8Cell/d2, number of embryos” value is 0 (2×) and 4 and 2. In assay [3] (setting [6]), the “Blast/d3, number of embryos” value is 2 and 5 and 12 and 1; the “Blast/d3, portion” value was “(8.3) %; also recorded: (22.2) %; also recorded: (50) %; also recorded: (66.7) %”; the “Hatch/d4, number of embryos” value was 0 (2×) and 3 and 7; the “Hatch/d4, portion of initial number of embryos” value is given as “(0) %; also recorded: (30) %; also recorded: (41.2) %”. The “comp/d2, number of embryos” value in assay [3] (setting [6]) is 3 and 6 and 10 and 1. For the same molecule, the “effect on embryonic development (blastocysts and hatched blastocysts)” value in assay [3] (Example 14, 1.7 mM) was “negative effect on embryonic development”. In assay [3] (setting [7]), the “8 cell/d2, number of embryos” value came to 6; the “Blast/d3, number of embryos” value worked out at 10; the “Blast/d3, portion” value is 90.90%; the “Hatch/d4, number of embryos” value is 4. Further, in assay [3] (setting [7]), the “Hatch/d4, portion of initial number of embryos” value was determined as 36.36% and the “comp/d2, number of embryos” value came to 5. In addition, the “Alizarin Red staining (calcium deposition)” value in assay [4] was “weak signal”. The “muscle contractions first observed, day after seeding” value in assay [5] is not below 10 days.
Consider `O=C([O-])[O-].[Na+].[Na+]` [NaCO3, sodium carbonate], for which the “embryonic development compared to control or ACC-PP” value in assay [3] (Example 15, 1.7 mM) is given as “very poor embryonic development”. Moreover, in assay [3] (setting [8]), the “8 cell/d2, number of embryos” value stood at 2; the “Blast/d3, number of embryos” value is given as 0; the “Blast/d4, number of embryos” value is reported as 0; the “Hatch/d4, number of embryos” value was found to be 0. In assay [3] (setting [8]), the “Hatch/d4, portion of total number of embryos” value is recorded as “(0) %”; the “comp/d2, number of embryos” value was 7; the “degenerative, number of embryos” value is recorded as 1; the “early Blast/d3, number of embryos” value is listed as 0. Besides, in assay [3] (setting [9]), the “8 cell/d2, number of embryos” value turned out to be 6; the “Blast/d3, number of embryos” value is recorded as 2; the “Blast/d4, number of embryos” value amounted to 0; the “Hatch/d4, number of embryos” value is on record as 2. For the same molecule, in assay [3] (setting [9]), the “Hatch/d4, portion of total number of embryos” value is reported as “(12.5) %”; the “comp/d2, number of embryos” value was 8; the “degenerative, number of embryos” value is reported as 2; the “early Blast/d3, number of embryos” value is on record as 14.
As to polyphosphate [PP], in assay [3] (setting [10]), the “8 cell/d2, number of embryos” value is 9; the “Blast/d3, number of embryos” value was 20; the “Blast/d3, portion” value is recorded as 54.1%; the “Hatch/d4, number of embryos” value is given as 17. Moreover, in assay [3] (setting [10]), the “Hatch/d4, portion of initial number of embryos” value worked out at 45.9% and the “comp/d2, number of embryos” value was found to be 20. Besides, in assay [3] (setting [11]), the “8 cell/d2, number of embryos” value was determined as 6; the “Blast/d3, number of embryos” value was determined as 34; the “Blast/d3, portion” value is recorded as 94.44%; the “Hatch/d4, number of embryos” value stood at 16. Besides, in assay [3] (setting [11]), the “Hatch/d4, portion of initial number of embryos” value was 44.44% and the “comp/d2, number of embryos” value is listed as 30.
